# Data as given in ChEMBL document CHEMBL1201862, “PubChem BioAssay data set” (2004).
#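 Growth conditions: 96-well plates. Treatment: test compound, 48 hours, 5 concentrations. Analysis: linear interpolation between bracketing concentrations; unreached endpoints set to highest concentration. GI50 is the concentration that inhibits growth by half.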 Calls of active or inactive are those of the source. Cut-off read from the data, not from the text of the source: active = GI50 up to about 1.1 µM and inactive = higher.
# Legend:
# Assay in all cases: DTP human tumour cell line panel, 48 h
# SF-295 = tested on: SF-295
# HCC 2998 = tested on: HCC 2998
# SK-MEL-2 = tested on: SK-MEL-2
# MCF7 = tested on: MCF7
# HL-60 = tested on: HL-60
# NCI-H460 = tested on: NCI-H460
# CCRF-CEM = tested on: CCRF-CEM
# SN12C = tested on: SN12C
# DU-145 = tested on: DU-145
# HCT-15 = tested on: HCT-15
# MOLT-4 = tested on: MOLT-4
# NCI/ADR-RES = tested on: NCI/ADR-RES
# RPMI-8226 = tested on: RPMI-8226
# KM-20L2 = tested on: KM-20L2
# MDA-MB-231 = tested on: MDA-MB-231
# Malme-3M = tested on: Malme-3M
# BT-549 = tested on: BT-549
# SK-MEL-5 = tested on: SK-MEL-5
# IGROV-1 = tested on: IGROV-1
# M14 = tested on: M14
# M19-MEL = tested on: M19-MEL
# SNB-19 = tested on: SNB-19
# MDA-MB-435 = tested on: MDA-MB-435
# EKVX = tested on: EKVX
# OVCAR-5 = tested on: OVCAR-5
# K562 = tested on: K562
# DLD-1 = tested on: DLD-1
# SK-OV-3 = tested on: SK-OV-3
# SNB-78 = tested on: SNB-78
# XF498 = tested on: XF498
# UO-31 = tested on: UO-31
# CAKI-1 = tested on: CAKI-1
# OVCAR-4 = tested on: OVCAR-4
# LOX IMVI = tested on: LOX IMVI
# PC-3 = tested on: PC-3
# UACC-62 = tested on: UACC-62
# U-251 = tested on: U-251
# OVCAR-8 = tested on: OVCAR-8
# DMS-273 = tested on: DMS-273
# HT-29 = tested on: HT-29
# OVCAR-3 = tested on: OVCAR-3
# NCI-H23 = tested on: NCI-H23
# 786-0 = tested on: 786-0
# SK-MEL-28 = tested on: SK-MEL-28
# HOP-18 = tested on: HOP-18
# T47D = tested on: T47D
# COLO 205 = tested on: COLO 205
# SW-620 = tested on: SW-620
# SF-539 = tested on: SF-539
# MDA-N = tested on: MDA-N
# RXF 393 = tested on: RXF 393
# A498 = tested on: A498
# NCI-H226 = tested on: NCI-H226
# ACHN = tested on: ACHN
# NCI-H522 = tested on: NCI-H522
# SR = tested on: SR
# TK-10 = tested on: TK-10
# HCT-116 = tested on: HCT-116
# UACC-257 = tested on: UACC-257
# HOP-62 = tested on: HOP-62
# A549 = tested on: A549
# SF-268 = tested on: SF-268
# HOP-92 = tested on: HOP-92
# SNB-75 = tested on: SNB-75
# Hs-578T = tested on: Hs-578T
# LXFL 529 = tested on: LXFL 529
# KM12 = tested on: KM12
# DMS-114 = tested on: DMS-114
smiles,measurement,setting,value
C[N+]1(C)C/C(=C\C=C\c2ccccc2)C(=O)/C(=C/C=C/c2ccccc2)C1,GI50,SF-295,23.8 µM (inactive)
same,GI50,HCC 2998,8.55 µM (inactive)
same,GI50,SK-MEL-2,17 µM (inactive)
same,GI50,MCF7,10.2 µM (inactive)
same,GI50,HL-60,1.02 µM (active)
same,GI50,NCI-H460,17.1 µM (inactive)
same,GI50,CCRF-CEM,1.78 µM (inactive)
same,GI50,SN12C,7.69 µM (inactive)
same,GI50,DU-145,17.2 µM (inactive)
same,GI50,HCT-15,40.2 µM
same,GI50,MOLT-4,4.06 µM (inactive)
same,GI50,NCI/ADR-RES,> 100 µM (inactive)
same,GI50,RPMI-8226,2.07 µM (inactive)
same,GI50,KM-20L2,14.7 µM (inactive)
same,GI50,MDA-MB-231,10.4 µM (inactive)
same,GI50,Malme-3M,16 µM (inactive)
same,GI50,BT-549,1.92 µM (inactive)
same,GI50,SK-MEL-5,6.24 µM (inactive)
same,GI50,IGROV-1,2.99 µM (inactive)
same,GI50,M14,16.3 µM (inactive)
same,GI50,M19-MEL,7.06 µM (inactive)
same,GI50,SNB-19,6.08 µM (inactive)
same,GI50,MDA-MB-435,4.28 µM (inactive)
same,GI50,EKVX,45.1 µM (inactive)
same,GI50,OVCAR-5,24.3 µM (inactive)
same,GI50,K562,4.18 µM (inactive)
same,GI50,DLD-1,16.1 µM (inactive)
same,GI50,SK-OV-3,37.7 µM (inactive)
same,GI50,SNB-78,6.12 µM (inactive)
same,GI50,XF498,8.49 µM (inactive)
same,GI50,UO-31,85.5 µM (inactive)
same,GI50,CAKI-1,65 µM (inactive)
same,GI50,OVCAR-4,42.7 µM (inactive)
same,GI50,LOX IMVI,12.2 µM (inactive)
same,GI50,PC-3,10.4 µM (inactive)
same,GI50,UACC-62,3.46 µM (inactive)
same,GI50,U-251,3.89 µM (inactive)
same,GI50,OVCAR-8,14.5 µM (inactive)
same,GI50,DMS-273,1.62 µM (inactive)
same,GI50,HT-29,9.53 µM (inactive)
same,GI50,OVCAR-3,8.61 µM (inactive)
same,GI50,NCI-H23,9.71 µM (inactive)
same,GI50,786-0,17.8 µM (inactive)
same,GI50,SK-MEL-28,3.85 µM (inactive)
same,GI50,HOP-18,> 42.2 µM (inactive)
same,GI50,T47D,17 µM (inactive)
same,GI50,COLO 205,0.773 µM (active)
same,GI50,SW-620,9.79 µM (inactive)
same,GI50,SF-539,7.55 µM (inactive)
same,GI50,MDA-N,4.48 µM (inactive)
same,GI50,RXF 393,21.5 µM (inactive)
same,GI50,A498,60.1 µM (inactive)
same,GI50,NCI-H226,22.3 µM (inactive)
same,GI50,ACHN,49.7 µM (inactive)
same,GI50,NCI-H522,3.78 µM (inactive)
same,GI50,SR,3.1 µM (inactive)
same,GI50,TK-10,33.4 µM (inactive)
same,GI50,HCT-116,9.48 µM (inactive)
same,GI50,UACC-257,8.39 µM (inactive)
same,GI50,HOP-62,21.3 µM (inactive)
same,GI50,A549,39.8 µM (inactive)
same,GI50,SF-268,4.97 µM (inactive)
same,GI50,HOP-92,17.9 µM (inactive)
same,GI50,SNB-75,6.73 µM (inactive)
same,GI50,Hs-578T,4.29 µM (inactive)
same,GI50,LXFL 529,2.98 µM (inactive)
same,GI50,KM12,2.93 µM (inactive)
same,GI50,DMS-114,2.72 µM (inactive)
